Measurements taken from patent US6432952B1, “Polymorphic form of a tachykinin receptor antagonist” (Merck & Co., Inc., priority 1999, dated 2002).
Read-outs that look alike come from different tables or passages of the source.

Experiments:
[1] = system: retching and vomiting induced by cisplatin; assay: Ferret model of cisplatin-induced emesis (Tattersall et al.); format: in vivo
[2] = Stability of the crystalline form as neat solid; format: physicochemical
[3] = Solubility in isopropyl acetate; format: physicochemical
Method: Solubility The solubility of Form I of 2-(R)-(1-(R)-(3,5-bis(trifluoromethyl)-phenyl)ethoxy)-4-(5-(dimethylamino)methyl-1,2,3-triazol-4-yl)methyl-3-(S)-(4-fluorophenyl)morpholine hydrochloride in isopropyl acetate at 25° C. was determined to be 7.4±0.3 mg/ml.

## C[C@@H](O[C@H]1OCCN(Cc2nn[nH]c2CN(C)C)[C@H]1c1ccc(F)cc1)c1cc(C(F)(F)F)cc(C(F)(F)F)c1.Cl [compound of the present invention, 2-(R)-(1-(R)-(3,5-bis(trifluoromethyl)phenyl)ethoxy)-4-(5-(dimethylamino)methyl-1,2,3-triazol-4-yl)methyl-3-(S)-(4-fluorophenyl)-morpholine hydrochloride]
[1]
  effect on retching and vomiting induced by cisplatin: attenuate the retching and vomiting induced by cisplatin

## C[C@@H](O[C@H]1OCCN(Cc2nn[nH]c2CN(C)C)[C@H]1c1ccc(F)cc1)c1cc(C(F)(F)F)cc(C(F)(F)F)c1.Cl [Form I, 2-(R)-(1-(R)-(3,5-bis(trifluoromethyl)phenyl)ethoxy)-4-(5-(dimethylamino)methyl-1,2,3-triazol-4-yl)methyl-3-(S)-(4-fluorophenyl)morpholine hydrochloride]
[2]; Form I versus Form II
  thermodynamic stability relative to the other form: thermodynamically more stable than Form II
[2]; as a neat solid
  thermal stability: high degree of thermal stability
[3]
  solubility: 10900 ± 1100 µg/mL
[3]; 25 °C, organic solvent or mixture, solubility
  solubility: 7400 ± 300 µg/mL
[3]; at 25° C., isopropyl acetate
  thermodynamic stability of Form I over Form II, from the ratio of the solubilities: approximately 0.2 kcal/mol
